Measured values reported in PubChem BioAssay AID248 (DTP/NCI, 2004).
“And” between values parts separate entries of the source, which are not always exact repeats. Equal entries are not always repeated. Inconclusive results and toxic doses are left out. Rule as the data show it: active = T/C of 150% or more; inactive = T/C below 125%.

System: L1210 leukemia ip in BDF1 mice, survival T/C
Test: NCI In Vivo Anticancer Drug Screen. Data for tumor model L1210 Leukemia (intraperitoneal) in B6D2F1 (BDF1) mice
Settings: endpoint: mean survival time, higher = longer survival
Outline: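 Tumor cells were implanted, animals were treated, and survival was followed. The result divides the treated measurement by the vehicle-control measurement.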

[1] = dose: 25.0 mg/kg/injection, schedule: Q01DX009 (ip), vehicle: Klucel (hydroxypropylcellulose) (HPC)
[2] = dose: 50.0 mg/kg/injection, schedule: Q04DX003 (ip), vehicle: saline
[3] = dose: 100.0 mg/kg/injection, schedule: Q04DX003 (ip), vehicle: saline
[4] = dose: 200.0 mg/kg/injection, schedule: Q04DX003 (ip), vehicle: saline
[5] = dose: 100.0 mg/kg/injection, schedule: Q01DX009 (ip), vehicle: Klucel (hydroxypropylcellulose) (HPC)
[6] = dose: 200.0 mg/kg/injection, schedule: Q01DX009 (ip), vehicle: Klucel (hydroxypropylcellulose) (HPC)
[7] = dose: 400.0 mg/kg/injection, schedule: Q01DX009 (ip), vehicle: Klucel (hydroxypropylcellulose) (HPC)
[8] = dose: 400.0 mg/kg/injection, schedule: Q04DX003 (ip), vehicle: saline
[9] = dose: 100.0 mg/kg/injection, schedule: Q01DX009 (ip), vehicle: saline with Tween-80
[10] = dose: 100.0 mg/kg/injection, schedule: Q04DX003 (ip), vehicle: saline with Tween-80
[11] = dose: 200.0 mg/kg/injection, schedule: Q01DX009 (ip), vehicle: saline with Tween-80
[12] = dose: 200.0 mg/kg/injection, schedule: Q04DX003 (ip), vehicle: saline with Tween-80
[13] = dose: 400.0 mg/kg/injection, schedule: Q01DX009 (ip), vehicle: saline with Tween-80
[14] = dose: 400.0 mg/kg/injection, schedule: Q04DX003 (ip), vehicle: saline with Tween-80

Measured: T/C

CC(=O)CC(=O)NCC(CCN1CCCCC1)(c1cccc2ccccc12)C(C)C (configuration not stated)
inactive: [1] 106 % of control | dose: 50.0 mg/kg/injection, schedule: Q01DX009 (ip), vehicle: Klucel (hydroxypropylcellulose) (HPC) 95 % of control

Nc1ccc(I)c([N+](=O)[O-])c1
inactive: dose: 100.0 mg/kg/injection, schedule: Q04DX003 (ip), vehicle: acetone 87 % of control | dose: 200.0 mg/kg/injection, schedule: Q04DX003 (ip), vehicle: acetone 92 % of control | dose: 400.0 mg/kg/injection, schedule: Q04DX003 (ip), vehicle: acetone 101 % of control

O=S(=O)(NC1C2CC3C1N3N2)c1ccccc1 (configuration not stated)
inactive: [2] 90 % of control | [3] 114 % of control | [4] 98 % of control

O=C(Nc1ccc(Cl)c(C(F)(F)F)c1)Oc1cccnc1
inactive: [1] 94 % of control | [5] 92 % of control and 93 % of control

CCOC(=O)c1ccc(NC(=O)Oc2ccc(C(=O)OC)cc2)cc1
inactive: [5] 102 % of control | [6] 95 % of control | [7] 100 % of control

ClC1=c2ccccc2=C2C(Cl)=c3ccccc3=C12
inactive: dose: 50.0 mg/kg/injection, schedule: Q04DX002 (ip), vehicle: Klucel (hydroxypropylcellulose) (HPC) 97 % of control | dose: 100.0 mg/kg/injection, schedule: Q04DX002 (ip), vehicle: Klucel (hydroxypropylcellulose) (HPC) 97 % of control

N=C(N)C[n+]1ccccc1
inactive: dose: 100.0 mg/kg/injection, schedule: Q01DX001 (ip), vehicle: saline 98 % of control | [3] 95 % of control | dose: 200.0 mg/kg/injection, schedule: Q01DX001 (ip), vehicle: saline 109 % of control | [4] 111 % of control | dose: 400.0 mg/kg/injection, schedule: Q01DX001 (ip), vehicle: saline 104 % of control | [8] 89 % of control

COc1ccc2ncc(C)c(C=O)c2c1
inactive: [5] 95 % of control | [6] 96 % of control | [7] 110 % of control

COc1ccccc1OC(=S)N(C)C
inactive: [9] 102 % of control | [10] 103 % of control | [11] 100 % of control | [12] 122 % of control | [13] 93 % of control | [14] 105 % of control

CNc1ccc(N=Nc2ccncc2C)cc1C
inactive: [10] 102 % of control | [12] 96 % of control | [14] 96 % of control

Clc1ccc(C[P+](c2ccccc2)(c2ccccc2)c2ccccc2)cc1Cl
inactive: dose: 0.62 mg/kg/injection, schedule: Q01DX009 (ip), vehicle: acetone 98 % of control | dose: 1.25 mg/kg/injection, schedule: Q01DX009 (ip), vehicle: acetone 101 % of control | dose: 2.5 mg/kg/injection, schedule: Q01DX009 (ip), vehicle: acetone 101 % of control | dose: 2.5 mg/kg/injection, schedule: Q04DX003 (ip), vehicle: acetone 94 % of control | dose: 3.6 mg/kg/injection, schedule: Q01DX009 (ip), vehicle: saline with Tween-80 97 % of control | dose: 5.0 mg/kg/injection, schedule: Q01DX001 (ip), vehicle: acetone 90 % of control | dose: 5.6 mg/kg/injection, schedule: Q01DX009 (ip), vehicle: saline with Tween-80 106 % of control | dose: 8.4 mg/kg/injection, schedule: Q01DX009 (ip), vehicle: saline with Tween-80 102 % of control | dose: 10.0 mg/kg/injection, schedule: Q01DX001 (ip), vehicle: acetone 97 % of control

OCC1CC2CCC1CC2 (configuration not stated)
inactive: dose: 50.0 mg/kg/injection, schedule: Q01DX009 (ip), vehicle: saline with Tween-80 100 % of control | [9] 105 % of control | [11] 108 % of control

COC(=O)c1cc(=O)n(C)c2ccc(OC)cc12
inactive: dose: 100.0 mg/kg/injection, schedule: Q01DX001 (ip), vehicle: saline with Tween-80 101 % of control | dose: 200.0 mg/kg/injection, schedule: Q01DX001 (ip), vehicle: saline with Tween-80 103 % of control | dose: 400.0 mg/kg/injection, schedule: Q01DX001 (ip), vehicle: saline with Tween-80 109 % of control

CCC1(C)CC=C2C(=CCC3C(C)(CO)CCCC23C)C1 (configuration not stated)
inactive: dose: 50.0 mg/kg/injection, schedule: Q04DX002 (ip), vehicle: other 104 % of control | dose: 100.0 mg/kg/injection, schedule: Q04DX002 (ip), vehicle: other 93 % of control | dose: 200.0 mg/kg/injection, schedule: Q04DX002 (ip), vehicle: other 96 % of control

CCOC(=O)c1c(Cl)cc(C)nc1C
inactive: [10] 93 % of control | [12] 101 % of control | [14] 95 % of control

O=C(CBr)c1ccc(/C=C/c2ccc(Cl)cc2)cc1
inactive: [9] 94 % of control

CCCCCCCCCOC(=O)NC1c2ccccc2Oc2ccccc21
inactive: dose: 100.0 mg/kg/injection, schedule: Q01DX009 (ip), vehicle: acetone 93 % of control | [3] 98 % of control | [4] 98 % of control | [8] 88 % of control

Cc1nc(CN(C)C)c2cnccn12
inactive: dose: 25.0 mg/kg/injection, schedule: Q01DX009 (ip), vehicle: saline 109 % of control | dose: 50.0 mg/kg/injection, schedule: Q01DX009 (ip), vehicle: saline 113 % of control | [3] 98 % of control

CNc1ccc(S(=O)(=O)c2ccc(NC)c([N+](=O)[O-])c2)cc1[N+](=O)[O-]
inactive: dose: 100.0 mg/kg/injection, schedule: Q01DX005 (ip), vehicle: gum acacia 93 % of control | dose: 100.0 mg/kg/injection, schedule: Q01DX009 (ip), vehicle: gum acacia 94 % of control | dose: 200.0 mg/kg/injection, schedule: Q01DX005 (ip), vehicle: gum acacia 93 % of control | dose: 200.0 mg/kg/injection, schedule: Q01DX009 (ip), vehicle: gum acacia 87 % of control | dose: 400.0 mg/kg/injection, schedule: Q01DX005 (ip), vehicle: gum acacia 96 % of control | dose: 400.0 mg/kg/injection, schedule: Q01DX009 (ip), vehicle: gum acacia 90 % of control

Cc1cccc(C)c1NC(=S)N1CCOCC1
inactive: dose: 100.0 mg/kg/injection, schedule: Q01DX009 (ip), vehicle: other 106 % of control | dose: 200.0 mg/kg/injection, schedule: Q01DX009 (ip), vehicle: other 116 % of control | dose: 400.0 mg/kg/injection, schedule: Q01DX009 (ip), vehicle: other 122 % of control

BrC(Br)(Br)c1ccc2ccccc2n1
inactive: dose: 50.0 mg/kg/injection, schedule: Q01DX001 (ip), vehicle: other 109 % of control | dose: 100.0 mg/kg/injection, schedule: Q01DX001 (ip), vehicle: other 103 % of control | [10] 93 % of control | dose: 200.0 mg/kg/injection, schedule: Q01DX001 (ip), vehicle: other 101 % of control | [12] 93 % of control | dose: 400.0 mg/kg/injection, schedule: Q01DX001 (ip), vehicle: other 97 % of control | [14] 95 % of control

CCOC(=O)NCCc1ccc(OC)c(OC)c1
inactive: [9] 92 % of control | [10] 97 % of control | [11] 91 % of control | [12] 112 % of control | [13] 96 % of control | [14] 102 % of control

N=C(N)c1ccc(-c2[nH]c3cc(C(=N)N)ccc3c2-c2ccccc2)cc1
inactive: dose: 12.5 mg/kg/injection, schedule: Q04DX003 (ip), vehicle: saline 100 % of control and 110 % of control | dose: 25.0 mg/kg/injection, schedule: Q04DX003 (ip), vehicle: saline 100 % of control and 110 % of control | [2] 108 % of control and 112 % of control
